This note sets out measurements from paper PMC10119282, “Molecular characterization of AIFM2/FSP1 inhibition by iFSP1-like molecules” (Cell Death & Disease, 2023).

Common to all, as to format: cell-based, murine
The test system of assay [1] is Pfa1 Gpx4−/− overexpressing chimeric FSP1 C4. The experiment in a line: Cell viability (Alamar blue), chimeric construct C4. The settings on record: Mus musculus; chimeric construct C4 (human residues 181 to 240); x axis iFSP1 (μM); read-out: IC50 (dose-response toxicity). The protocol: (§1) Cell Lines. 4-hydroxytamoxifen (TAM)-inducible Gpx4^−/− murine immortalized fibroblasts (Pfa1) were reported previously. These cells harbor two loxP-flanked Gpx4 alleles and stably express TAM inducible Cre recombinase allowing the genetic deletion of Gpx4 at will. For all experiments using Gpx4^−/− the well were treated with 4-hydroxitamoxifen (TAM) 1 µM. All cells were cultured with were cultured in DMEM-high glucose (4.5 g glucose/L) with 10% fetal bovine serum (FBS), Glutamax, and 1% penicillin/streptomycin (Gibco, Thermo Fischer) at 37 °C with 5% CO2 and verified to be negative for mycoplasma.
(§2) Cell viability assays. Alamar Blue method: Cells were seeded on 96-well plates (2000 cells per well) and treated with the compounds RSL3, iFSP1 and (liproxstatin-1) after plating. Cell viability was assessed 48 h (unless stated otherwise) after treatment using Alamar Blue as an indicator of viable cells. Alamar blue solution was made by dissolving of 1 g resazurin sodium salt (Thermo Fischer) in 200 mL sterile PBS and sterile filtrated through a 0.22 µm filter. Stock solutions were stored at 4 °C. The working solution was made freshly by adding 200 µL of the stock solution to 25 mL growth media. After 2–4 h incubation time, viability was estimated by measuring the fluorescence using a 540/35 excitation filter and a 590/20 emission on a Spark® microplate reader (Tecan, Zürich, Switzerland). […]

For assay [2], the system named is Pfa1 Gpx4−/− overexpressing chimeric FSP1 C3. The experiment in a line: Cell viability (Alamar blue), chimeric construct C3. The settings on record: Mus musculus; chimeric construct C3 (human residues 121 to 180); x axis iFSP1 (μM); read-out: IC50 (dose-response toxicity). As to the method: as §1, §2
Assay [3] relates to Pfa1 Gpx4−/− overexpressing hFSP1 F360L. The assay is described as follows: Cell viability (Alamar blue), hFSP1 F360L. The protocol:
as §1
(§3) Cell viability assays. Alamar Blue method: Cells were seeded on 96-well plates (2000 cells per well) and treated with the compounds RSL3, iFSP1 and (liproxstatin-1) after plating. Cell viability was assessed 48 h (unless stated otherwise) after treatment using Alamar Blue as an indicator of viable cells. Alamar blue solution was made by dissolving of 1 g resazurin sodium salt (Thermo Fischer) in 200 mL sterile PBS and sterile filtrated through a 0.22 µm filter. Stock solutions were stored at 4 °C. The working solution was made freshly by adding 200 µL of the stock solution to 25 mL growth media. After 2–4 h incubation time, viability was estimated by measuring the fluorescence using a 540/35 excitation filter and a 590/20 emission on a Spark® microplate reader (Tecan, Zürich, Switzerland).

Assay [4] concerns Pfa1 Gpx4−/− overexpressing chimeric FSP1 C5. The assay is described as follows: Cell viability (Alamar blue), chimeric construct C5. The settings on record: Mus musculus; chimeric construct C5 (human residues 241 to 300); x axis iFSP1 (μM); read-out: IC50 (dose-response toxicity). The protocol: as §1, §2
Assay [5] has as its system Pfa1 Gpx4−/− overexpressing chimeric FSP1 C2. The assay is described as follows: Cell viability (Alamar blue), chimeric construct C2. The settings on record: Mus musculus; chimeric construct C2 (human residues 59 to 120); x axis iFSP1 (μM); read-out: IC50 (dose-response toxicity). The protocol: as §1, §2
The subject of assay [6] is Pfa1 Gpx4−/− cells overexpressing human FSP1 (hFSP1). The assay is described as follows: Cell viability (Alamar blue), dose-response toxicity in Gpx4-knockout cells expressing hFSP1. The protocol:
as §1, §3
Codon-optimized Mus musculus (mouse) FSP1 (NP_001034283.1) and Homo sapiens (Human) FSP1 (NP_001185625.1) were synthesized by IDT as gBlocks^TM and subcloned into p442-IRES-blast vectors. The chimera constructs were generated based on the pairwise alignment between the gene of Homo sapiens (Human) and the Mus musculus (Mouse), all the chimeric constructs contain the murine isoform with one region exchanged to the human isoform. […]

Assay [7] concerns Pfa1 Gpx4−/− overexpressing mFSP1 K319Q. The assay is described as follows: Cell viability (Alamar blue), mFSP1 K319Q. The settings on record: Mus musculus, x axis iFSP1 (μM), read-out: IC50 (dose-response toxicity). The protocol:
as §1, §3

Consider `Cc1ccc(-c2c(C#N)c(N)n3c(nc4ccccc43)c2C#N)cc1` [iFSP1], for which the half-inhibitory concentration (IC50) in assay [1] was found to be 8.96 µM; in assay [2], 8.71 µM; in assay [3] (Mus musculus, x axis iFSP1 (μM), read-out: IC50 (dose-response toxicity)) it was 6.18 µM; in assay [4], 6.82 µM; in assay [5], 6.2 µM; in assay [6] (Mus musculus, hFSP1 WT, Δ curve (no Lip-1), Alamar blue, x axis iFSP1 (μM)) it was 0.45 µM. For the same compound, in assay [7], the IC50 came out at 5.62 µM. In assay [3], the “capacity to induce ferroptosis” value was “completely abolished the capacity of iFSP1 to induce ferroptosis”. Further, the induction of ferroptosis entry in assay [6] (human isoform) is listed as “induce ferroptosis”.
